PubChem BioAssay AID1259411 (Chemical Carcinogenesis Research Information System (CCRIS), 2018)
Active and inactive are the calls of the source. No rule for the calls is given here.

System: rodent carcinogenicity bioassays, tumor incidence
Assay: CCRIS carcinogenicity studies
Settings: Dose: 0, Dose: 0
Outline: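 Archive of carcinogenicity, mutagenicity, tumor promotion and tumor inhibition results drawn from journals, NCI reports and other sources, expert-reviewed; covers 1985-2011 and is no longer updated.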

CCSC(C)CC1CC(=O)C(/C(CC)=N/OC/C=C/Cl)=C(O)C1 (configuration not stated)
carcinogen call (Species: Mouse, Strain/Sex: ???/Female (50/group), Route: Oral, 20, 200, 1,000, 2,000 ppm increased to 3,000 ppm after 15th wk in diet for 78 wk, 20, 200, 1,000, 2,000 ppm increased to 3,000 ppm after 15th wk in diet for 78 wk): inactive; negative (study details not given in source; purity 83.3%)
carcinogen call (Species: Mouse, Strain/Sex: ???/Male (50/group), Route: Oral, 20, 200, 1,000, 2,000 ppm increased to 3,000 ppm after 15th wk in diet for 78 wk, 20, 200, 1,000, 2,000 ppm increased to 3,000 ppm after 15th wk in diet for 78 wk): inactive; negative (study details not given in source; purity 83.3%)

CCN(N=O)C(=O)NCC(C)=O
carcinogen call (Species: RAT, Strain/Sex: F344/FEMALE, Route: GAVAGE, 9.5, 19 MG/ML IN CORN OIL/ETHYL ACETATE (2:1) 2/WK FOR 30 WK (STUDY DURATION: LIFETIME), 9.5, 19 MG/ML IN CORN OIL/ETHYL ACETATE (2:1) 2/WK FOR 30 WK (STUDY DURATION: LIFETIME), Tumor Site: Type of Lesion: LUNG: TUMOR, MAMMARY GLAND: CARCINOMA, UTERUS: TUMOR, FORESTOMACH: TUMOR, SPLEEN: TUMOR, ZYMBAL GLAND: TUMOR, SMALL INTE, Tumor Site: Type of Lesion: LUNG: TUMOR, MAMMARY GLAND: CARCINOMA, UTERUS: TUMOR, FORESTOMACH: TUMOR, SPLEEN: TUMOR, ZYMBAL GLAND: TUMOR, SMALL INTE): active; positive
carcinogen call (Species: RAT, Strain/Sex: F344/FEMALE, Route: ORAL, 40, 80 MG/L IN DRINKING WATER 5 D/WK FOR 30 WK (STUDY DURATION: LIFETIME), 40, 80 MG/L IN DRINKING WATER 5 D/WK FOR 30 WK (STUDY DURATION: LIFETIME), Tumor Site: Type of Lesion: LIVER: TUMOR, LUNG: TUMOR, MAMMARY GLAND: CARCINOMA, UTERUS: TUMOR, THYROID: FOLLICULAR TUMOR, COLON: TUMOR, NERVOUS SYS, Tumor Site: Type of Lesion: LIVER: TUMOR, LUNG: TUMOR, MAMMARY GLAND: CARCINOMA, UTERUS: TUMOR, THYROID: FOLLICULAR TUMOR, COLON: TUMOR, NERVOUS SYS): active; positive
carcinogen call (Species: RAT, Strain/Sex: F344/MALE, Route: GAVAGE, 9.5, 19 MG/ML IN CORN OIL/ETHYL ACETATE (2:1) 2/WK FOR 30 WK (STUDY DURATION: LIFETIME), 9.5, 19 MG/ML IN CORN OIL/ETHYL ACETATE (2:1) 2/WK FOR 30 WK (STUDY DURATION: LIFETIME), Tumor Site: Type of Lesion: LIVER: TUMOR, LUNG: TUMOR, MESOTHELIUM: TUMOR, NERVOUS SYSTEM: TUMOR, THYROID: FOLLICULAR TUMOR, FORESTOMACH: TUMOR, SPL, Tumor Site: Type of Lesion: LIVER: TUMOR, LUNG: TUMOR, MESOTHELIUM: TUMOR, NERVOUS SYSTEM: TUMOR, THYROID: FOLLICULAR TUMOR, FORESTOMACH: TUMOR, SPL): active; positive
carcinogen call (Species: RAT, Strain/Sex: F344/MALE, Route: ORAL, 40, 80 MG/L IN DRINKING WATER FOR 5 D/WK FOR 30 WK (STUDY DURATION: LIFETIME), 40, 80 MG/L IN DRINKING WATER FOR 5 D/WK FOR 30 WK (STUDY DURATION: LIFETIME), Tumor Site: Type of Lesion: LUNG: TUMOR, THYROID: FOLLICULAR TUMOR, COLON: TUMOR, MESOTHELIUM: TUMOR, NERVOUS SYSTEM: TUMOR, SKIN: TUMOR, ZYMBAL GLA, Tumor Site: Type of Lesion: LUNG: TUMOR, THYROID: FOLLICULAR TUMOR, COLON: TUMOR, MESOTHELIUM: TUMOR, NERVOUS SYSTEM: TUMOR, SKIN: TUMOR, ZYMBAL GLA): active; positive

OC[C@@H](O)[C@@H](O)[C@H](O)[C@H](O)CO[C@H]1O[C@H](CO)[C@@H](O)[C@H](O)[C@H]1O
carcinogen call (Species: MOUSE, Strain/Sex: SWISS/FEMALE, Route: ORAL, 2.5, 5, 10% IN DIET FOR LIFE (PARENTS FED DIETS BEFORE AND AFTER PREGNANCY AND DURING LACTATION) (STUDY DURATION: 104, 2.5, 5, 10% IN DIET FOR LIFE (PARENTS FED DIETS BEFORE AND AFTER PREGNANCY AND DURING LACTATION) (STUDY DURATION: 104): inactive; negative
carcinogen call (Species: MOUSE, Strain/Sex: SWISS/MALE, Route: ORAL, 2.5, 5, 10% IN DIET FOR LIFE (PARENTS FED DIETS BEFORE AND AFTER PREGNANCY AND DURING LACTATION) (STUDY DURATION: 94, 2.5, 5, 10% IN DIET FOR LIFE (PARENTS FED DIETS BEFORE AND AFTER PREGNANCY AND DURING LACTATION) (STUDY DURATION: 94): inactive; negative
carcinogen call (Species: RAT, Strain/Sex: WISTAR/FEMALE, Route: ORAL, 2.5, 5, 10% IN DIET FOR LIFE (PARENTS FED DIETS BEFORE AND AFTER PREGNANCY AND DURING LACTATION) (STUDY DURATION: 130, 2.5, 5, 10% IN DIET FOR LIFE (PARENTS FED DIETS BEFORE AND AFTER PREGNANCY AND DURING LACTATION) (STUDY DURATION: 130): inactive; negative
carcinogen call (Species: RAT, Strain/Sex: WISTAR/MALE, Route: ORAL, 2.5, 5, 10% IN DIET FOR LIFE (PARENTS FED DIETS BEFORE AND AFTER PREGNANCY AND DURING LACTATION) (STUDY DURATION: 128, 2.5, 5, 10% IN DIET FOR LIFE (PARENTS FED DIETS BEFORE AND AFTER PREGNANCY AND DURING LACTATION) (STUDY DURATION: 128): inactive; negative

Cc1ncc[nH]1
carcinogen call (Species: MOUSE, Strain/Sex: B6C3F1/FEMALE, Route: ORAL (DIET), 625, 1250, 2500 PPM FOR 105 WKS (STUDY DURATION: 105 WKS), 625, 1250, 2500 PPM FOR 105 WKS (STUDY DURATION: 105 WKS), Tumor Site: Type of Lesion: LIVER: HEPATOCELLULAR ADENOMA): active; positive
carcinogen call (Species: MOUSE, Strain/Sex: B6C3F1/MALE, Route: ORAL (DIET), 625, 1250, 2500 PPM FOR 105 WKS (STUDY DURATION: 105 WKS), 625, 1250, 2500 PPM FOR 105 WKS (STUDY DURATION: 105 WKS), Tumor Site: Type of Lesion: LIVER: HEPATOCELLULAR ADENOMA OR CARCINOMA, THYROID: FOLLICULAR CELL ADENOMA): active; positive
carcinogen call (Species: RAT, Strain/Sex: F344/N/FEMALE, Route: ORAL (DIET), 1000, 2500, 5000 PPM FOR 106 WKS (STUDY DURATION: 106 WKS), 1000, 2500, 5000 PPM FOR 106 WKS (STUDY DURATION: 106 WKS), Tumor Site: Type of Lesion: THYROID: FOLLICULAR CELL ADENOMA OR CARCINOMA): active; positive
carcinogen call (Species: RAT, Strain/Sex: F344/N/MALE, Route: ORAL (DIET), 300, 1000, 3000 PPM FOR 106 WKS (STUDY DURATION: 106 WKS), 300, 1000, 3000 PPM FOR 106 WKS (STUDY DURATION: 106 WKS)): inactive; negative

CC(=O)OC/C=C(\C)CCC=C(C)C
carcinogen call (Species: MOUSE, Strain/Sex: B6C3F1/MALE, Route: GAVAGE, 500 MG/KG OF FOOD GRADE (29% CITRONELLYL ACETATE) IN CORN OIL 5D/WK FOR 102 WK (STUDY DURATION: 104 WK)): inactive; negative
carcinogen call (Species: RAT, Strain/Sex: F344/FEMALE, Route: GAVAGE, 1000, 2000 MG/KG OF FOOD GRADE (29% CITRONELLYL ACETATE) IN CORN OIL 5D/WK FOR 103 WK (STUDY DURATION: 104 WK), 1000, 2000 MG/KG OF FOOD GRADE (29% CITRONELLYL ACETATE) IN CORN OIL 5D/WK FOR 103 WK (STUDY DURATION: 104 WK)): inactive; negative
carcinogen call (Species: RAT, Strain/Sex: F344/MALE, Route: GAVAGE, 1000 MG/KG OF FOOD GRADE (29% CITRONELLYL ACETATE) IN CORN OIL 5D/WK FOR 103 WK (STUDY DURATION: 104 WK)): inactive; negative
